# Measurements as given in ChEMBL document CHEMBL5576040, “Dipeptide-catalysed Michael reaction under physiological conditions: Examination of potential bioorthogonality” (Bioorg Med Chem, 2024).
# System: A2780
# Assay: Anticancer activity against human A2780 cells assessed as inhibition of cell growth measured after 48 hrs by MTT assay
# Format: functional, cell-based
# Conditions: A2780, 48 h
smiles,measurement,value
O=C1CCCC[C@H]1[C@@H](C[N+](=O)[O-])c1ccccc1,IC50,> 100 µM
O=C1CCCC[C@H]1[C@H](c1ccccc1)C(F)[N+](=O)[O-] (some centres not stated),IC50,89 µM
